Experimental data taken from patent US7285569B2, “Tricycles, their manufacture and use as pharmaceutical agents” (Hoff Hoffmann-La Roche Inc., priority 2004, dated 2007).

Assays:
HCT 116 cells = assay: CellTiter-Glo assay in HCT 116 cells (antiproliferative activity); assay type: cell-based; conditions: HCT 116 human colon carcinoma cells, 5 days (120 h) incubation, CellTiter-Glo luminescence
Source text: Antiproliferative Activity
CellTiter-Glo™ Assay in HCT 116 Cells
The CellTiter-Glo™ Luminescent Cell Viability Assay (Promega) is a homogeneous method of determining the number of viable cells in culture based on quantitation of the ATP present, which signals the presence of metabolically active cells.
HCT 116 cells (human colon carcinoma, ATCC-No. CCI-247) were cultivated in RPMI 1640 medium with GlutaMAX™ I (Invitrogen, Cat-No. 61870-010), 2.5% Fetal Calf Serum (FCS, Sigma Cat-No. F4135 (FBS)); 100 Units/ml penicillin/100 μg/ml streptomycin (=Pen/Strep from Invitrogen Cat. No. 15140). For the assay the cells were seeded in 384 well plates, 1000 cells per well, in the same medium. The next day the test compounds were added in various concentrations ranging from 30 μM to 0.0015 μM (10 concentrations, 1:3 diluted). After 5 days the CellTiter-Glo™ assay was done according to the instructions of the manufacturer (CellTiter-Glo™ Luminescent Cell Viability Assay, from Promega). In brief: the cell-plate was equilibrated to room temperature for approximately 30 minutes and than the CellTiter-Glo™ reagent was added. The contents were carefully mixed for 15 minutes to induce cell lysis. After 45 minutes the luminescent signal was measured in Victor 2, (scanning multiwell spectrophotometer, Wallac).
Medium: RPMI 1640 with GlutaMAX™ I (Invitrogen, Cat-Nr. 61870), 5% FCS (Sigma Cat.-No. F4135), Pen/Strep (Invitrogen, Cat No. 15140).
HCT116 (ATCC-No. CCI-247): 1000 cells in 60 μl per well of 384 well plate (Greiner 781098, μClear-plate white)
After seeding incubate plates 24 h at 37° C., 5% CO2
2nd. Day: Induction (Treatment with Compounds, 10 Concentrations):
In order to achieve a final concentration of 30 μM as highest concentration 3.5 μl of 10 mM compound stock solution were added directly to 163 μl media. Then step e) of the dilution procedure described below, was followed.
In order to achieve the second highest to the lowest concentrations, a serial dilution with dilution steps of 1:3 was followed according to the procedure (a-e) as described here below: • for the second highest concentration add 10 μl of 10 mM stock solution of compound to 20 μl dimethylsulfoxide (DMSO) • dilute 8×1:3 (always 10 μl to 20 μl DMSO) in this DMSO dilution row (results in 9 wells with concentrations from 3333.3 μM to 0.51 μM) • dilute each concentration 1:47.6 (3.5 μl compound dilution to 163 μl media) • add 10 μl of every concentration to 60 μl media in the cell plate resulting in final concentration of DMSO: 0.3% in every well and resulting in 10 final concentration of compounds ranging from 30 μM to 0.0015 μM. • Each compound is tested in triplicate. • Incubate 120 h (5 days) at 37° C., 5% CO2 Analysis:
Add 30 μl CellTiter-Glo™ Reagent (prepared from CellTiter-Glo™ Buffer and CellTiter-Glo™ Substrate (lyophilized) purchased from Promega) per well, • shake 15 minutes at room temperature • incubate further 45 minutes at room temperature without shaking Measurement:
Victor 2 scanning multiwell spectrophotometer (Wallac), Luminescence mode (0.5 sec/read, 477 nm)
Determine IC50 using a non-linear curve fit (XLfit software (ID Business Solution Ltd., Guilford, Surrey, UK))

Aurora A = biological target: T1, Aurora A (Homo sapiens, UniProt O14965); assay: IC50 determination for inhibitors of Aurora A (96 MTP-ELISA); assay type: biochemical; conditions: His4-tagged full-length Aurora A 250 ng/ml, PKB-GSK2 200 nM, ATP 4 μM, 90 min at room temperature; read-out: IC50 Aurora A kinase inhibition
T1 construct: C-terminally Histidine4 (His4)-tagged Aurora A full-length protein
T1 sequence (O14965 1-403): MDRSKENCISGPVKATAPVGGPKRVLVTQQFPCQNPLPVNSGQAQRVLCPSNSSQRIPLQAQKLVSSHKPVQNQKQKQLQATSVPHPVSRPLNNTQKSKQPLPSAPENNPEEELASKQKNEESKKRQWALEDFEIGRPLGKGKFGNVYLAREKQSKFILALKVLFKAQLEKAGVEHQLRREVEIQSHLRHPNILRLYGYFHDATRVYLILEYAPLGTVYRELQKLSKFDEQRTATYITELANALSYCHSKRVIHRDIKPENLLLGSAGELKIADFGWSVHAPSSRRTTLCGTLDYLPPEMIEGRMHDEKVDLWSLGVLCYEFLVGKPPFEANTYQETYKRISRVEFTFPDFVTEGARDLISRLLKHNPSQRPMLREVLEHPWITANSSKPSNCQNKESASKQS
Source text: IC50 Determination for Inhibitors of Aurora A
Aurora A is a serine threonine kinase involved in spindle assembly and chromosome segregation.
The assay is a typically ELISA-type assay where biotinylated substrate (PKB-GSK2) is phosphorylated. Phosphorylation is detected by peroxidase (POD) labelled polyclonal antibody (PAK<M-Ig>S-IgG-POD) and phosphopeptide monoclonal antibody (Mab) (MAK<P-GSK>M-27E5-IgG). The assay is validated for IC50-determination.
Aurora A-His-4 C-terminally Histidine4 (His4)-tagged Aurora A full-length protein, stock solution 0.7 mg/ml, final conc.: 250 ng/ml
PKB-GSK2 biotinylated peptide derived from human GSK3-alpha sequence (Biotin-SGRARTSSFAEPGG-CONH2), stock solution 600 μM, final conc.: 200 nM
ATP Adenosine-5′-triphosphate 1 mM, diluted in kinase buffer, (Roche Diagnostics GmbH, Cat. No.: 127531-001,), final conc.: 4 μM
Kinase buffer 50 mM TRIS, 10 mM MgCl2, 1 mM DTT, 0.1% Tween 20, pH 7.8
This assay is performed in 96-well format for IC50 determination with 5 samples (each with 8 concentrations by twofold testing), 100 μl incubation volume and the following plate layout:
Step/Action 1. Sample preparation: add 24 μl per well samples (descending sequence) diluted in kinase buffer to assay plate (final conc. for DMSO 1%). 2. Add directly 16 μl Aurora-A-his-4 diluted in kinase buffer to assay plate. 3. Add directly 40 μl per well PKB-GSK2/ATP mixture to assay plate, (final conc.: Aurora A=250 ng/ml, GSK2=200 nM, ATP=4 μM). Negative control: without ATP. 4. Incubate assay plate for exactly 90 min at room temperature. 5. Stop reaction by adding 20 μl EDTA in all wells. 6. Wash assay plate 3× with 200 μl washing buffer per well. 7. Add 100 μl MAK<P-GSK>M27E5-IgG (1:10000) and PAK<M-Ig>S-IgG-POD (1:6000) dissolved in 3% BSA/PBS-T to assay plate per well. 8. Incubate assay plate for 60 min at room temperature. 9. Wash assay plate 3× with 200 μl washing buffer per well 10. Add 100 μl ABTS solution to assay plate per well, incubate for approx. 4 min at RT on MTP shaker. 11. Measure absorption at 405/492 nm. 12. Calculate % inhibition as: (1−(Esample−ENC)/(EPC−ENC))×100 13. Calculate IC50 using a non-linear curve fit (XLfit software (ID Business Solution Ltd., Guilford, Surrey, UK))

`CC(C)Cc1cc(-c2nc3cc4c(cc3[nH]2)NC(=O)C42CCCC2)[nH]n1` [Example 8, 2-(5-Isobutyl-2H-pyrazol-3-yl)-spiro-5,7-dihydro[cyclopentane-1′,7-imidazo[4,5-f]indol]-6(3H)-one] showed an IC50 (HCT 116 cells) of 100 to 10000 nM.
Work on `Cc1cc(-c2nc3cc4[nH]c(=O)n(C)c4cc3[nH]2)n[nH]1` [Example 10, 3-Methyl-6-(5-methyl-1H-pyrazol-3-yl)-3,5-dihydro-1H-benzo[1,2-d;4,5-d′]diimidazol-2-one] yielded an IC50 (Aurora A) of 10 to 500 nM.
`CCN1C(=O)C(C)(C)c2cc3nc(-c4cc(C)[nH]n4)[nH]c3cc21` [Example 12, 5-Ethyl-7,7-dimethyl-2-(5-methyl-1H-pyrazol-3-yl)-5,7-dihydro-3H-imidazo[4,5-f]indol-6-one] gave an IC50 (HCT 116 cells) of 100 to 10000 nM.
Compound `CCCc1cc(-c2nc3cc4c(cc3[nH]2)N(C)C(=O)C4(C)C)[nH]n1` [Example 14, 5,7,7-Trimethyl-2-(5-propyl-2H-pyrazol-3-yl)-5,7-dihydro-3H-imidazo[4,5-f]indol-6-one] has an IC50 (HCT 116 cells) of 1200 nM.
In the case of `CCN1C(=O)C(C)(C)c2cc3nc(-c4cc(CC(C)C)n[nH]4)[nH]c3cc21` [Example 15, 5-Ethyl-2-(5-isobutyl-2H-pyrazol-3-yl)-7,7-dimethyl-5,7-dihydro-3H-imidazo[4,5-f]indol-6-one], the IC50 (HCT 116 cells) is reported as 100 to 10000 nM.
`CC(C)Cc1cc(-c2nc3cc4c(cc3[nH]2)N(C)C(=O)C4(C)C)[nH]n1` [Example 16, 2-(5-Isobutyl-2H-pyrazol-3-yl)-5,7,7-trimethyl-5,7-dihydro-3H-imidazo[4,5-f]indol-6-one] gave an IC50 (HCT 116 cells) of 100 to 10000 nM.
`CCc1[nH]nc(-c2nc3cc4c(cc3[nH]2)C(C)(C)C(=O)N4)c1C` [Example 19, 2-(5-Ethyl-4-methyl-1H-pyrazol-3-yl)-7,7-dimethyl-5,7-dihydro-1H-imidazo[4,5-f]indol-6-one] was tested, and the IC50 (Aurora A) was 10 to 500 nM.
For `CC1(C)C(=O)Nc2cc3nc(-c4cc[nH]n4)[nH]c3cc21` [Example 20, 7,7-Dimethyl-2-(1H-pyrazol-3-yl)-5,7-dihydro-1H-imidazo[4,5-f]indol-6-one], the IC50 (HCT 116 cells) was 100 to 10000 nM.
In the case of `CC1(C)C(=O)Nc2cc3nc(-c4cc(C5CC5)[nH]n4)[nH]c3cc21` [Example 21, 2-(5-Cyclopropyl-1H-pyrazol-3-yl)-7,7-dimethyl-5,7-dihydro-1H-imidazo[4,5-f]indol-6-one], the IC50 (Aurora A) is reported as 10 to 500 nM.
With `CC(C)c1cc(-c2nc3cc4c(cc3[nH]2)C(C)(C)C(=O)N4)[nH]n1` [Example 22, 2-(5-Isopropyl-2H-pyrazol-3-yl)-7,7-dimethyl-5,7-dihydro-1H-imidazo[4,5-f]indol-6-one] the IC50 (HCT 116 cells) was 100 to 10000 nM.
`CC1(C)CC(=O)Nc2cc3nc(-c4cc(C5CC5)[nH]n4)[nH]c3cc21` [Example 25, 2-(5-Cyclopropyl-1H-pyrazol-3-yl)-8,8-dimethyl-1,5,7,8-tetrahydro-imidazo[4,5-g]quinolin-6-one] gave an IC50 (Aurora A) of 10 to 500 nM.
`CN1C(=O)C(C)(C)c2cc3nc(-c4cc[nH]n4)[nH]c3cc21` [Example 30, 5,7,7-Trimethyl-2-(1H-pyrazol-3-yl)-5,7-dihydro-3H-imidazo[4,5-f]indol-6-one] showed an IC50 (HCT 116 cells) of 100 to 10000 nM.
`CCN1C(=O)C(C)(C)c2cc3nc(-c4cc[nH]n4)[nH]c3cc21` [Example 32, 5-Ethyl-7,7-dimethyl-2-(1H-pyrazol-3-yl)-5,7-dihydro-3H-imidazo[4,5-f]indol-6-one] showed an IC50 (HCT 116 cells) of 100 to 10000 nM.
Compound `CCCc1cc(-c2nc3cc4c(cc3[nH]2)N(CC)C(=O)C4(C)C)[nH]n1` [Example 33, 5-Ethyl-7,7-dimethyl-2-(5-propyl-2H-pyrazol-3-yl)-5,7-dihydro-3H-imidazo[4,5-f]indol-6-one; compound with acetic acid] has an IC50 (HCT 116 cells) of 100 to 10000 nM.
With `CC1(C)C(=O)Nc2cc3nc(-c4cc(C(F)(F)F)n[nH]4)[nH]c3cc21` [Example 38, 7,7-Dimethyl-2-(5-trifluoromethyl-2H-pyrazol-3-yl)-5,7-dihydro-1H-imidazo[4,5-f]indol-6-one] the IC50 (HCT 116 cells) was 10000 to 100000 nM.
`CCN1C(=O)C(C)(C)c2cc3nc(-c4cc(C(F)(F)F)[nH]n4)[nH]c3cc21` [Example 39, 5-Ethyl-7,7-dimethyl-2-(5-trifluoromethyl-1H-pyrazol-3-yl)-5,7-dihydro-3H-imidazo[4,5-f]indol-6-one] was tested, and the IC50 (HCT 116 cells) was 100 to 10000 nM.
For `CN1C(=O)C(C)(C)c2cc3nc(-c4cc(C(F)(F)F)n[nH]4)[nH]c3cc21` [Example 42, 5,7,7-Trimethyl-2-(5-trifluoromethyl-2H-pyrazol-3-yl)-5,7-dihydro-3H-imidazo[4,5-f]indol-6-one], the IC50 (HCT 116 cells) was 980 nM.
`O=C1Nc2cc3nc(-c4cc(C5CC5)[nH]n4)[nH]c3cc2C12CCCC2` [Example 43, 2-(5-Cyclopropyl-2H-pyrazol-3-yl)-spiro-5,7-dihydro[cyclopentane-1′,7-imidazo[4,5-f]indol]-6(3H)-one] gave an IC50 (HCT 116 cells) of 100 to 10000 nM.
`CCN1C(=O)C(C)(C)c2cc3nc(-c4cc(OC)[nH]n4)[nH]c3cc21` [Example 44, 5-Ethyl-2-(5-methoxy-1H-pyrazol-3-yl)-7,7-dimethyl-5,7-dihydro-3H-imidazo[4,5-f]indol-6-one] gave an IC50 (HCT 116 cells) of 100 to 10000 nM.
With `CCN1C(=O)C(C)(C)c2cc3[nH]c(-c4cc(SC)[nH]n4)nc3cc21` [Example 45, 5-Ethyl-7,7-dimethyl-2-(5-methylsulfanyl-1H-pyrazol-3-yl)-5,7-dihydro-1H-imidazo[4,5-f]indol-6-one] the IC50 (HCT 116 cells) was 100 to 10000 nM.
